Laboratory results reported in ChEMBL document CHEMBL1201862, “PubChem BioAssay data set” (2004).
Activity calls are given as the source filed them.

Tests used:
[1] = PAX5 activity inhibitors, dose response, selectivity assay for PAX8 inhibitor project, cell-based, plate reader, dry powder samples (AID 743047); assay type: functional;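 also: HEK293 cells carrying a Pax5 driven CD19 promoter luciferase reporter; potency of inhibitors that lower reporter luminescence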
[2] = PAX2 cell-based inhibition, dose response, selectivity assay for PAX8 inhibitor project, plate reader, dry powder samples (AID 743048); assay type: functional;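 also: HEK293 cells carrying a WT1 promoter luciferase reporter driven by expressed Pax2; potency is for inhibition of Pax2 driven reporter signal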
Paired box protein Pax-8 = Paired box protein Pax-8 (Homo sapiens, UniProt Q06710); assay: inhibitors of PAX8-driven TPO luciferase reporter, dose response, RMG-I cells, cherry-pick (AID 687027); assay type: functional, cell-based;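 also: luciferase reporter driven by Pax8 target thyroperoxidase promoter measured by SteadyGlo luminescence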
[3] = cytotoxicity dependent on PAX8, dose response, cell-based, plate reader, dry powder (AID 743049); assay type: functional
[4] = cytotoxicity in COV434 cells, dose response, cytotoxicity control for PAX8 inhibitor project, cell-based, plate reader, dry powder, SA7 (AID 743145); assay type: functional
[5] = cytotoxicity in OVCAR8 ovarian cancer cells, dose response, PAX8 project, cell-based, plate reader, dry powder samples (AID 743197); assay type: functional; settings: OVCAR-8
[6] = Late stage assay provider results from the probe development effort to identify inhibitors of the Plasmodium falciparum M18 Aspartyl Aminopeptidase (M18AAP): radiolabel-based cell-based dose response assay to identify compounds that inhibit P. falciparum growth in RBCs, Set 2..; assay type: functional
BHK-21 = assay: BHK-21 cell toxicity, dose response, cytotoxicity control, plate reader, cherry-pick samples (AID 687030); assay type: functional, cell-based; settings: Mesocricetus auratus
[7] = Counterscreen for activators of the function of SWI/SNF related, matrix associated, actin dependent regulator of chromatin, subfamily a, member 2 (SMARCA2, BRM): Luminescence-based cell-based high throughput dose response assay to identify non-selective compounds using the VP16 reporter assay.; assay type: functional
[8] = target: FAD-linked sulfhydryl oxidase ALR (Homo sapiens, UniProt P55789); assay: inhibitors of human ALR sulfhydryl oxidase, dose response, biochemical, H2O2 detection, luminescence, cherry-pick (AID 493248)
[9] = target: SWI/SNF-related matrix-associated actin-dependent regulator of chromatin subfamily A member 2 (Homo sapiens, UniProt P51531); assay: Luminescence-based cell-based high throughput dose response assay to identify activators of the function of SWI/SNF related, matrix associated, actin dependent regulator of chromatin, subfamily a, member 2 (SMARCA2, BRM).; assay type: functional
[10] = P. falciparum Dd2 growth inhibitors, dose response, SYBR Green, cherry-picked samples (AID 1159567); assay type: functional, cell-based
[11] = P. falciparum 3D7-ScDHODH growth inhibitors, dose response, SYBR Green, dry powder samples (AID 1159570); assay type: functional, cell-based;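 also: parasite growth measured after 72 hours of compound exposure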
[12] = P. falciparum ATP4 D1247Y mutant growth inhibitors, dose response, NITD609-resistant line, SYBR Green, dry powder (AID 1159571); assay type: functional, cell-based;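 also: parasites synchronized at ring stage by sorbitol before testing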
[13] = P. falciparum Dd2 growth inhibitors, dose response, SYBR Green, dry powder samples (AID 1159566); assay type: functional, cell-based;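 also: potency for growth inhibition with lower SYBR green DNA signal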
[14] = HepG2 cell cytotoxicity, dose response, cytotoxicity control, plate reader, dry powder samples (AID 1159569); assay type: functional, cell-based;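 also: inhibitor potency with signal falling toward the positive control level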
[15] = Plasmodium falciparum Dd2 Sybr green parasite growth Measured in Cell-Based and Microorganism Combination System Using Plate Reader - 2153-01_Inhibitor_Dose_DryPowder_Activity_Set3.; assay type: functional
Major prion protein = Major prion protein (Homo sapiens, UniProt P04156); assay type: functional, cell-based
[16] = target: NAD-dependent protein deacylase sirtuin-5, mitochondrial (Homo sapiens, UniProt Q9NXA8); assay: SIRT5 desuccinylase inhibitors, dose response, biochemical, fluorescence imaging, cherry-pick, set 5 (AID 720591);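 also: desuccinylation of succinyl peptide AMC substrate read as fluorescence after trypsin release; potency of inhibitors that lower fluorescence and may act on trypsin instead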
[17] = target: T1, Ubiquitin-conjugating enzyme E2 N (Homo sapiens, UniProt P61088); assay type: functional;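 also: Dose-response confirmation in a TR-FRET assay detecting UBC13-driven polyubiquitin chain formation, inhibition measured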
T1 sequence (P61088 whole entry): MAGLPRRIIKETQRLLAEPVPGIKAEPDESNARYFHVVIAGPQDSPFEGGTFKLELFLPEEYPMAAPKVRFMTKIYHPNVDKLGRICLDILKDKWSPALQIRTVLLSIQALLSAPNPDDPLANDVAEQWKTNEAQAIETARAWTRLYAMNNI

[18] = target: RNA-editing ligase 1, mitochondrial (Trypanosoma brucei brucei, UniProt P86926); assay: TbREL1 ligase inhibitors, dose response, biochemical, fluorescence, Trypanosoma brucei (AID 1117295); assay type: functional
[19] = microbe, parasite or virus in culture; assay type: functional; settings: Mycobacterium tuberculosis
[20] = Late stage assay provider results from the probe development effort to identify selective inhibitors of heat shock protein 90 (HSP90): Absorbance-based cell proliferation assay in MCF7 cells.; assay type: functional
[21] = Late stage assay provider results from the probe development effort to identify selective inhibitors of heat shock protein 90 (HSP90): Absorbance-based cell proliferation assay in SKBR3 cells.; assay type: functional; settings: SK-BR-3
[22] = target: Potassium channel subfamily K member 9 (Homo sapiens, UniProt Q9NPC2); assay: TASK3 (KCNK9) channel inhibitors, thallium flux, SAR follow-up, selectivity assay for TASK1 inhibitor project, cell-based, FluxOR thallium flux, concentration-response (AID 652211); assay type: functional;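 also: potency is for inhibitors of the channel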
[23] = target: Potassium channel subfamily K member 3 (Homo sapiens, UniProt O14649); assay: TASK1 (KCNK3) potassium channel inhibitors, SAR follow-up, CHO cells, FluxOR thallium flux (AID 652212); assay type: functional
[24] = A2780 ovarian cancer cell cytotoxicity, dose response, cytotoxicity control, plate reader, dry powder samples (AID 743046); assay type: functional, cell-based
fMet-Leu-Phe receptor = fMet-Leu-Phe receptor (Homo sapiens, UniProt P21462); assay: FPR ligands, dose response (AID 519); assay type: functional
[25] = cytotoxicity toward HT-29 cells – cell-based, CellTiter-Glo luminescence, IC50, dose response (AID 1117330); assay type: functional
[26] = Concentration-dependent survival of SW480 colon cancer line, luminescence detection with CellTiter-Glo, half-maximal inhibitory concentration (AID 1117338); assay type: functional
[27] = cytotoxicity toward HCT116 cells – cell-based, CellTiter-Glo luminescence, IC50, dose response (AID 1117332); assay type: functional; settings: HCT-116
[28] = CellTiter-Glo luminescent dose response of DLD-1 viability loss (AID 1117352); assay type: functional
[29] = SNU-C1 cell viability reduction, dose response, CellTiter-Glo luminescence (AID 1117323); assay type: functional, cell-based
[30] = RKO cell viability reduction, dose response, CellTiter-Glo luminescence (AID 1117322); assay type: functional
[31] = HCT116 cell viability decrease, GSK3B pretreatment – CellTiter-Glo, IC50, dose response (AID 1117339); assay type: functional; settings: HCT-116
[32] = cytotoxicity toward Colo320 cells – cell-based, CellTiter-Glo luminescence, IC50, dose response (AID 1117334); assay type: functional; settings: COLO 320

## CCCC#Cc1ccc([C@@H]2[C@@H](C#N)N(S(=O)(=O)c3cccc(F)c3)[C@H]2CO)cc1
[1]
  AC50: 24.2 µM (active)
[2]
  AC50: 28.2 µM (active)
Paired box protein Pax-8
  AC50: 5.96 µM (active)
[3]
  AC50: 37 µM (active)
[4]
  AC50: > 70 µM (inactive)
[5]
  AC50: 43.1 µM (active)

## COc1ccc(CCNc2c3c(nc4ccccc24)CCCC3)cc1OC
[6]
  IC50: 16.5 µM (inactive)

## NNC(=O)c1ccc(-c2ccccc2F)cc1
BHK-21
  AC50: 19.3 µM (active)

## COc1ccc(-n2nnnc2S(=O)(=O)Cc2ccc(C(=O)O)cc2)cc1
[7]
  EC50: > 91.2 µM (inactive)
[8]
  AC50: 38 nM (active)
[9]
  EC50: > 91.2 µM (inactive)

## CCCNC(=O)N1[C@H](C#N)[C@H](c2ccc(C3=CCCCC3)cc2)[C@H]1CO
[10]
  AC50: 424 nM (active)
[11]
  AC50: 18.3 µM (active)
[12]
  AC50: 163 nM (active)
[13]
  AC50: 113 nM (active)
[14]
  AC50: > 100 µM (inactive)
[15]
  AC50: 374 nM (active)

## CN(C)S(=O)(=O)c1ccc(N2CCCC2)c(C(=O)Nc2nccs2)c1
cells
  IC50: > 138 µM (inactive)
Major prion protein
  IC50: 14.8 µM (inactive)

## CC(C)(C)OC(=O)N(CCc1ccccc1)Cc1ccccc1OCc1cccc(NC(=O)C2CCCC2)c1
[16]
  AC50: > 30 µM (inactive)

## COc1ccc(C[C@H]2CN3C(=NC[C@H]3Cc3ccccc3)N2CCNC(=O)CCC2CCCCC2)cc1
[17]
  IC50: > 20 µM (inactive)
[18]
  IC50: > 96.6 µM (inactive)
[19]
  CC50: 23.8 µM (active)

## COc1ccccc1NC(=O)c1ccc(=O)oc1
[20]
  IC50: 30.2 µM (inactive)
[21]
  IC50: 33.1 µM (inactive)

## Cc1cccc(C(=O)Nc2cccc(NC(=O)c3cccs3)c2)c1
[22]
  IC50: 230 nM (active)
[23]
  IC50: 7 nM (active)

## COc1ccc2c3c(n(C)c2c1)[C@H](CO)N(C(=O)Nc1ccc(F)cc1)CC31CCN(S(=O)(=O)c2cccc(C)c2)CC1
Paired box protein Pax-8
  AC50: 7.72 µM (active)
[24]
  AC50: 38.8 µM (active)
[5]
  AC50: 58 µM (active)

## Cc1ccc(C(=O)C2=C(O)C(=O)N(Cc3ccccc3)C2c2cccnc2)o1 (centres undefined)
fMet-Leu-Phe receptor
  Ki: > 66.7 µM (inactive)

## CC=CC1C(C(=O)OCc2c(F)c(F)c(COC)c(F)c2F)C1(C)C (centres undefined)
[25]
  IC50: > 20 µM (inactive)
[26]
  IC50: > 20 µM (inactive)
[27]
  IC50: > 20 µM (inactive)
[28]
  IC50: > 20 µM (inactive)
[29]
  IC50: > 20 µM (inactive)
[30]
  IC50: > 20 µM (inactive)
[31]
  IC50: > 20 µM (inactive)
[32]
  IC50: > 20 µM (inactive)
